Reference: patent publication US20230000808A1, “COMPOSITIONS AND METHODS EXCLUDING OR WITH REDUCED GLUTAMINE FOR THE TREATMENT OF HEMOGLOBINOPATHIES AND THALASSEMIAS” (AXCELLA HEALTH INC., priority 2019, published 2023)

What was measured:
[1] = Pharmacokinetics following oral dose administration to male Sprague-Dawley rats (plasma amino acids, LC-MS); settings: analyte after oral gavage of RCitNacQCarLHKVS
Experimental: A pharmacokinetic (PK) analysis was performed on plasma concentrations of various combinations of amino acid compounds administered by oral gavage to male Sprague-Dawley rats. Four animals were dosed with RCitNacQCarLHKVS, a test article comprising ten amino acid components: arginine, citrulline, N-acetylcysteine (Nac), glutamine, carnitine, leucine, histidine, lysine, valine, and serine (Table 19). Animals were fasted for 2 hours prior to dose administration. Plasma samples were taken immediately pre-dose and 0.5, 1, 2, 3, 4, and 5 hours post-dose.
Bioanalysis of collected plasma samples for amino acid content was performed at Axcella Health using an LC-MS method (Section 2.1). Bioanalytical data were analyzed using noncompartmental analysis with PHOENIX® WINNONLIN® (v8.1).
An LC/MS method utilizing HILIC chromatography and high-resolution mass spectrometry was used to quantify amino acids in rat plasma. […]
PK parameters of test article components were determined from individual rat plasma concentration-time data by employing a noncompartmental approach using Phoenix WINNONLIN® (Version 8.1) software. […] This program analyzed data using the standard methods described by Gibaldi and Perrier (see M. Gibaldi and D. Perrier, Pharmacokinetics, 2nd edition, New York: Marcel-Dekker, Inc.; 1982.).

[2] = system: RBCs of healthy whole blood; assay: RBC deformability (Elongation Index, LORRCA ektacytometry), ex vivo TBHP oxidation of healthy whole blood; type: cell-based, human; settings: healthy donor 2, single amino acid treatments
Description: Whole blood from healthy African American and/or Hispanic donors was obtained from Research Blood Components, LLC based on the following donor selection criteria: Adult age (between 18 and 50 years), normal BMI (<30), and absence of other confounding clinical conditions. Whole blood from SCD donors were obtained from BioIVT based on the following donor selection criteria: Patients with genotypes HbSS, HbSC, HbS/β^0 and at least 1-2 months gap since last blood transfusion. Whole blood was shipped on ice on the same day as blood draw. Upon receipt, the blood sample was aliquoted and stored in the refrigerator until used for studies.
RBC deformability measurements were conducted with the Laser Optical Rotational Red Cell Analyzer (LORRCA) from RR Mechatronics in a temperature-controlled environment (37° C.). Briefly, an even layer of RBCs suspended in polyvinylpyrrolidone (PVP) is subjected to shear stress gradient (0.3 to 30 Pa) through two concentric cylinders and the resulting changes in RBC shape or deformability are measured by a laser beam diffraction pattern. The captured images of RBC shape in response to increasing shear stress are then analyzed by the LORRCA program to calculate Elongation Index (EI).
Healthy RBCs have higher deformability ≥0.5 EI and SCD RBCs have lower deformability or EI values as studied by LORRCA ektacytometry in the field. […] The induced hemolysis model in this disclosure involves use of tert-butyl hydroperoxide (TBHP) to lower EI of RBCs.
The ex vivo hemolysis study disclosed here involves overnight treatment of whole blood with vehicle as a control and specific amino acids followed by rapid oxidation (5 min) with TBHP. Method for oxidation of whole blood with tert-butyl hydroperoxide has been used in prior literature (Diederich L, et al, Front Physiol. 2018 May 11; 9:332). RBC deformability or shape changes are then measured with LORRCA ektacytometry.
Whole blood aliquots stored in the fridge were brought up to room temperature while gently shaking on a rocker at low speed for an hour to ensure gradual and uniform suspension of red blood cells prior to deformability measurements. Vehicle control used in the study was 1× Dulbecco's […]) and amino acids disclosed herein were added (at either final 10× or 2.5 mM concentration as indicated) to corresponding vehicle and amino acid treatment conditions. The samples were then incubated overnight at 37° C. The next day, 25 μl of whole blood was taken from each treatment condition and added to 5 mL Elon ISO viscous solution from RR Mechatronics. The sample was inverted 15-20 times to ensure proper mixing of the treated RBCs with the Elon ISO solution followed by loading the sample on LORRCA and capturing RBC deformability or shape measurements over the applied shear gradient. The remaining whole blood treatments were returned to incubator (37° C.) until deformability measurements were completed for all treatments. To the remaining whole blood treatment samples, TBHP solution (5.0-6.0 M in Decane, Sigma) was added at 2.5 mM final concentration from a 100 mM freshly prepared stock and incubated for further 5 min at 37° C. 25 μl of this TBHP-treated sample was immediately removed at the end of the 5 min incubation and added to the Elon ISO solution for RBC deformability measurement after oxidation. Included in the Tables 13-15 are EI measurements at ½ EImax shear stress 1.69 Pa and EImax shear stress 30 Pa from these studies and FIG. 1 captures EI measurements for all shear stress points for the indicated treatment conditions.

ICAM-1 = ICAM-1 cell integrated intensity in HLMVEC treated with TNF-α (immunofluorescence); type: cell-based, human; settings: HLMVEC + 0.5 ng/mL TNF-α, 24 h; amino acids 20x HMDB, Nac/Cit/Car 5 mM as bracketed
Experimental: (§1) Primary Human Lung Microvascular Endothelial Cells (HLMVEC; Lonza) were seeded at 6,000 cells per well in Endothelial Cell Growth Basal Medium-2 (Lonza) supplemented with Fetal Bovine Serum (FBS; Lonza), human EGF (Lonza), human VEGF (Lonza), R3-Insulin-like Growth Factor-1 (Lonza), ascorbic acid (Lonza), hydrocortisone (Lonza), human FGF-beta (Lonza), and gentamicin/amphotericin-b (Lonza) in a 96-well plate (Thermo Fisher). The cells were incubated for 45 minutes at room temperature, then incubated overnight at 37° C./5% CO2.
(§2) Following overnight incubation, cell were washed once with 150 μL of Dulbecco's phosphate buffered saline (DPBS; Gibco), and then treated with Endothelial Basal Medium MCB-131 (amino acid, glucose, sodium pyruvate, and phenol red free; US Biologicals) containing a defined custom amino acid concentration based on physiological concentrations in blood of patients with SCD (thus recapitulating observed metabolic imbalances such as the depletion of certain essential amino acids including arginine and aspartate and enrichment of certain non-essential amino acids including glutamate and asparagine), dialyzed FBS (Hyclone), human EGF (Lonza), human VEGF (Lonza), R3-Insulin-like Growth Factor-1 (Lonza), ascorbic acid (Lonza), hydrocortisone (Lonza), human FGF-beta (Lonza), and gentamicin/amphotericin-b (Lonza), glucose, 10 mM HEPES, sodium pyruvate, and sodium bicarbonate supplemented with one of the following: • a. PBS (vehicle control), • b. 0.5 ng/mL Tumor Necrosis Factor alpha (TNFα) and PBS, or; • c. 0.5 ng/mL TNF-α and amino acid treatments at 20× mean physiological concentrations in plasma based on values published in the Human Metabolome Database (HMDB) in PBS.
(§3) After 24 hours of treatment, cells were washed once with 150 μL of DPBS (Gibco), then fixed with 4% paraformaldehyde. Following fixation, cells were stained with anti-ICAM-1 [MEM-111] (mouse IgG2a anti-human; abcam) and anti-VCAM1 [1.4C3] (mouse IgG1, K anti-human; abcam) primary antibodies at 1000×, and 100× dilutions respectively. Cells were then stained with Goat anti-Mouse IgG2a Cross-Adsorbed Secondary Antibody, Alexa Fluor 594 (Invitrogen) and Goat anti-Mouse IgG1 Cross-Adsorbed Secondary Antibody, Alexa Fluor 647 (Invitrogen) secondary antibodies. Nuclei were stained with Hoechst 3342 (Life Technologies).
(§4) Antibody binding was detected by fluorescence microscopy using a high content imager (Molecular Devices). Images were analyzed using MetaXpress 6 software to determine the integrated intensity per cell for each wavelength corresponding to ICAM-1 or VCAM-1.

IL-6 = assay: Secreted IL-6 in HLMVEC treated with TNF-α (FirePlex); type: cell-based, human; settings: HLMVEC + 0.5 ng/mL TNF-α, 24 h; amino acids 20x HMDB, Nac/Cit/Car 5 mM as bracketed
Experimental: as §1, §2
Supernatants were analyzed for IL-6 concentrations using a Human Cytokines FirePlex-HT Panel 1 kit (abcam) according to the manufacturer-supplied instructions. Particles were imaged on a high content imager (Molecular Devices), and results were interpolated from a standard curve with FirePlex Analysis Workbench Software (abcam) according manufacturer's recommendations.

VCAM-1 = VCAM-1 cell integrated intensity in HLMVEC treated with TNF-α (immunofluorescence); type: cell-based, human
Experimental: as §1, §2, §3, §4

HLMVEC = assay: META-rank score, composite of VCAM1, ICAM1 and IL6 in the HLMVEC model; type: cell-based, human; settings: HLMVEC + TNF-α; lower score = more optimal; 20x HMDB / 5 mM
Experimental: The ability of single amino acids and combinations to simultaneously impact these phenotypes was measured by a META-rank score (Tables 17 and 18). META-rank score is a composite measure that considers the optimal impact on all 3 phenotypes (e.g. decrease VCAM1, ICAM1, and IL6) in the HLMVEC model.

[3] = system: whole blood from healthy controls; assay: ROS (DCF fluorescence) in whole blood of healthy control donors, H2O2-induced; type: cell-based, human
Experimental: (§5) Whole blood samples were appropriately diluted in Ca^2+- and Mg^2+-free Dulbecco's phosphate buffered saline (DPBS, Life Technologies) and the concentration of erythrocytes (RBC/mL) was measured on a Cellometer K2 Fluorescent Viability Cell Counter according to the manufacturer's RBC/AOPI protocol (Nexcelom Biosciences).
(§6) Cells were then diluted to 1×10^6 RBC/mL into either prewarmed 37° C. […] 2′-7′-dichlorofluorescin diacetate (DCF, Millipore Sigma), 20 mM in dimethyl sulfoxide (DMSO, Fisher) were added to a working concentration of 100 μM. Cells were incubated with dye for 15 minutes at 37° C., 5% CO2 in a tissue culture incubator, washed once, and resuspended in the 0.9 volumes of the same prewarmed 37° C. buffer with 5 minute spins at 500×g, accel/decal=5 in a swing arm centrifuge (Beckman Coulter). […] Where possible due to solubility constrains, pH-7.4-adjusted stock solutions of amino acids were used. Wells were mixed by pipetting and plates incubated at 37° C., 5% CO2 in a tissue culture incubator for 30 minutes. Optionally, 40 mM H2O2 (Millipore Sigma) freshly prepared in the same buffer was added to bring the concentration to 2 mM, wells mixed by pipetting, and plates were incubated an additional 30, 60, 120, or 240 minutes before fluorescence measurement of ROS signal on a Synergy H4 (BioTek) microplate reader with excitation=488 nm and emission=530 nm, and gain either set to autogain, 75, or 100.

[4] = system: sickle cell disease patient blood; assay: ROS (DCF fluorescence) in sickle cell disease patient whole blood; type: cell-based, human
Experimental: as §5, §6

## C[N+](C)(C)CC(O)CC(=O)[O-] (stereo not drawn) [Car, carnitine]
[1]
  plasma concentration over the five-hour time course: continuously increased
[2]
  EI over vehicle control, both ½ EImax and EImax: higher than the vehicle
ICAM-1
  ICAM-1 Cell Integrated Intensity Median: −0.013
IL-6
  Secreted IL6 Median: −0.022
VCAM-1; 0.5 ng/mL TNF-α, amino acids at 20× HMDB, 24 hours
  VCAM-1 expression in HLMVEC: moderate effect
VCAM-1; HLMVEC + 0.5 ng/mL TNF-α, 24 h, amino acids 20x HMDB, Nac/Cit/Car 5 mM as bracketed
  VCAM-1 Cell Integrated Intensity Median: −0.017
HLMVEC
  Meta-Rank (Table 18): 12.5
  Metarank (Table 17): 24

## N[C@@H](CS)C(=O)O [cysteine]
[3]; healthy control donors treated with H2O2, dose-responsive
  ROS measured in whole blood: reduced
[4]; both treated with H2O2 and untreated, in DPBS
  ROS measured in whole blood: reduced

## N[C@@H](Cc1c[nH]c2ccccc12)C(=O)O [tryptophan]
[3]; healthy donor blood, 10×
  ROS signal: increased
[4]; 10×
  ROS signal: increased
